Data published in patent US11124479B2, “Oligopyrroles as antagonists of islet amyloid polypeptide oligomerization” (New York University, priority 2017, dated 2021).

Assays:
Assay type in all cases: biochemical
[1] = molecular target: T1, islet amyloid polypeptide (IAPP) (Homo sapiens, UniProt P10997); experiment: ThT-based kinetic assay of IAPP fibrillation; conditions: for relative t50 of IAPP fibrillation versus control reaction: 15 μM IAPP, equimolar ratio
T1 construct: IAPP is a 37 residue neuropancreatic hormone peptide; purchased Anaspec (Fremont, Calif.)
T1 sequence (P10997 34-70 limits assumed): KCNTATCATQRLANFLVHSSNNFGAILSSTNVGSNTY
Text: The aggregation kinetics of IAPP was probed using an exogenous reporter, Thioflavin T (ThT), which quantifies the amount of fibers in solution without perturbing the aggregation kinetics of IAPP (see Wolfe, L. S.; Calabrese, M. F.; Nath, A.; Blaho, D. V.; Miranker, A. D.; Xiong, Y. Proc. Natl. Acad. Sci. U.S.A. 2010, 107, 16863-16868; Levine, H. Protein Sci. 1993, 2, 404-410). […] The kinetics of IAPP fibrillation was quantified using the reaction midpoint, t50, which is the time required to reach 50% fluorescence in the fibrillation reaction (FIG. 8).
Kinetic assays were conducted on a FlexStation 3 Multi-Mode Microplate reader from Molecular Devices (Sunnyvale, Calif.). Experiments were conducted in triplicate in a 96-well plate with a final volume of 200 μL per well. Every measurement was an average of 50 readings. The aggregation of IAPP was initiated by its addition from a stock solution (1 mM in DMSO) to phosphate buffer. The stoichiometry ratio for ThT to IAPP was 0.5:1. Peptide aggregation was monitored by ThT fluorescence (λex=445 nm and λem=485 nm). The blank sample contained all the components of the peptide samples except peptide. The sample data were processed by subtracting the blank and renormalizing the fluorescence intensity by setting the maximum value to 1.
Kinetic assays in the presence of the compounds of the invention were conducted under the same conditions. Small molecules were added from a stock solution (1 mM or 10 mM in DMSO) to keep the final concentration of DMSO less than 1.0% (v/v). Small molecules were added to the wells with ThT and buffer and mixed gently with a pipette before adding IAPP. To keep the conditions identical, an equal amount of DMSO was added to the wells with IAPP only reactions. For the aggregation kinetics of Aβ42, the peptide was dissolved in 1N NaOH (0.5-1 mM) and vortexed for 2 min. to ensure the complete solubility. The aggregation of 3 μM Aβ42 was initiated by addition of peptide from a stock solution (in 1 N NaOH, 0.5-1 mM) to phosphate buffer.
Kinetic profiles were processed using Origin (version 9.1). Kinetic curves were fit using the built-in sigmoidal fit. Each run was fit independently to extract the t50 (time required to reach 50% of the maximum fluorescence intensity). Error bars represent standard deviations from the mean of at least three independent experiments.
The membrane model system selected for the amyloid assays is a mixture of DOPG (dioleoylphosphatidylglycerol) and DOPC (dioleoylphosphatidylcholine) at 3:7 molar ratio, which mimics physiological conditions (Ono, K.; Condron, M. M.; Teplow, D. B. Proc. Natl. Acad. Sci. U.S.A. 2009, 106, 14745-14750). The lipid catalyzed aggregation of IAPP was initiated by adding freshly prepared 15 μM IAPP (1 mM stock solution in DMSO) to the phosphate buffer (50 mM NaPi, 150 mM KCl, pH 7.4) containing 15 μM ThT and 750 μM of unilamellar liposomes (LUVs, DOPG:DOPC, 3:7, d=100 nm).

[2] = molecular target: T1, islet amyloid polypeptide (IAPP); experiment: Seed-catalyzed ThT kinetic assay of IAPP aggregation; conditions: 15 μM IAPP; for relative t50 of seed catalyzed fibrillation: seed 5% v/v, lipid membrane DOPG:DOPC 3:7 750 μM; for factor of retardation of seed catalyzed aggregation kinetics: seed 10% v/v
Experimental: Seeds of IAPP were prepared by incubating 100 μM of IAPP in phosphate buffer at room temperature and aged for 24 hours. The formation of fibers was confirmed by TEM and ThT stain before storage at −20° C. until use. For the seed catalyzed aggregation kinetics of IAPP, 10% (based on the monomeric IAPP, v/v) seeds were added with ThT in phosphate buffer to the 96-well plate. The aggregation was initiated by the addition of fresh IAPP followed by gentle mixing. Kinetic assays in the presence of the compounds of the invention were conducted under the same conditions except that the compounds were added from a stock solution (1 mM or 10 mM in DMSO) to keep the final concentration of DMSO less than 1.0% (v/v).
The effect of ADH-101 on preformed IAPP oligomers has been investigated. ADH-101 was added during the lag phase of IAPP amyloid kinetics at 1 h and 3 h at an equimolar ratio (IAPP:ADH-101, 1:1, 10 μM IAPP). […] Additionally, ADH-101 has no effect on IAPP amyloid fibers. No change in ThT fluorescence intensity was observed when ADH-101 added to the fibers (FIG. 4, black arrow). […] The kinetics of IAPP fibrillation is dominated by the secondary nucleation which is reflected in the disappearance of the lag phase (FIG. 13). The t50 for the seed catalyzed (5%, v/v) aggregation kinetics of 15 μM IAPP (lipid membrane, DOPG:DOPC, 3:7, 750 μM) is 0.55±0.13 h which is […] faster than the de novo conditions (t50=1.55±0.20 h, FIGS. 13A and 13B). ADH-101 delays the seed catalyzed fibrillation by a relative t50 that is 1.8 fold and 2.6 fold at stoichiometric ratios of 1:1 and 2:1 (ADH-101:IAPP), respectively (FIGS. 13A and 13B). The t50 for the seed catalyzed (10%, v/v) aggregation of 15 μM IAPP is 0.86±0.19 h, which is ˜10 fold faster than the de novo conditions (t50=8.7±0.8 h, FIGS. 13C and 13D). ADH-101 retards the seed catalyzed aggregation kinetics of IAPP by factors of 1.4, 5.4, and 7.1 at stoichiometric ratios of 1:0.1, 1:0.5, and 1:1 (IAPP:ADH-101), respectively (FIGS. 13C and 13D). It is postulated that ADH-101 modulates IAPP conformation and attenuates its ability for oligomerization and fibrillation.

[3] = molecular target: T1, islet amyloid polypeptide (IAPP); experiment: ThT-based kinetic assay of IAPP fibrillation

antagonist of oligomerization, fibrillation, and/or aggregation of IAPP (in words) [1]: effective antagonist
inhibition of IAPP aggregation ([1]; de novo (no lipid membrane), fivefold excess): completely abolishes
relative t50 of IAPP fibrillation versus control reaction ([1]; de novo / lipid free): 4.4 fold
change in the intensity of ThT ([1]; identical conditions without IAPP): no significant change
relative t50 of IAPP fibrillation versus control reaction ([1]; lipid catalyzed (750 μM LUVs, DOPG:DOPC 3:7)): 2.7 fold
fold better inhibitor of IAPP fibrillation than Acid Fuchsin ([1]; lipid catalyzed conditions): 3.5 fold
fold better inhibitor of IAPP fibrillation than Curcumin ([1]; lipid catalyzed conditions): 2.2 fold
fold better inhibitor of IAPP fibrillation than EGCG ([1]; lipid catalyzed conditions): 3.3 fold
inhibition of IAPP fibrillation ([1]; lipid catalyzed, stoichiometric ratio 10:1 (ADH-101:IAPP)): completely inhibits
relative t50 of seed catalyzed fibrillation ([2]; ratio 1:1 (ADH-101:IAPP)): 1.8 fold
relative t50 of seed catalyzed fibrillation ([2]; ratio 2:1 (ADH-101:IAPP)): 2.6 fold
factor of retardation of seed catalyzed aggregation kinetics ([2]; ratio 1:0.1 (IAPP:ADH-101)): 1.4
factor of retardation of seed catalyzed aggregation kinetics ([2]; ratio 1:0.5 (IAPP:ADH-101)): 5.4
factor of retardation of seed catalyzed aggregation kinetics ([2]; ratio 1:1 (IAPP:ADH-101)): 7.1
inhibition of IAPP fibrillation when added during the lag phase, compared to premixed (t=0 h) ([3]; added at 1 h and 3 h, equimolar ratio, 10 μM IAPP): equally effective
effect on IAPP amyloid fibers (ThT fluorescence) ([3]; added to the fibers): no effect
factor of delay of IAPP amyloid kinetics ([3]; cholesterol-containing LUVs (30% cholesterol), 15 μM IAPP, equimolar ratio): 3.6
Structure (SMILES): CCOC(=O)c1cc(NC(=O)c2cc(NC(=O)c3cc([N+](=O)[O-])cn3CC(C)C)cn2CC(C)C)cn1CCC(=O)O [ADH-101]
